Assay results published in patent US7259161B2, “Compositions useful as inhibitors of JAK and other protein kinases” (Vertex Pharmaceuticals Incorporated, priority 2002, dated 2007).
pKi: −log10 of the molar value.

Molecular target: T1, ZAP-70 (Homo sapiens, UniProt P43403)
T1 sequence (P43403 1-619): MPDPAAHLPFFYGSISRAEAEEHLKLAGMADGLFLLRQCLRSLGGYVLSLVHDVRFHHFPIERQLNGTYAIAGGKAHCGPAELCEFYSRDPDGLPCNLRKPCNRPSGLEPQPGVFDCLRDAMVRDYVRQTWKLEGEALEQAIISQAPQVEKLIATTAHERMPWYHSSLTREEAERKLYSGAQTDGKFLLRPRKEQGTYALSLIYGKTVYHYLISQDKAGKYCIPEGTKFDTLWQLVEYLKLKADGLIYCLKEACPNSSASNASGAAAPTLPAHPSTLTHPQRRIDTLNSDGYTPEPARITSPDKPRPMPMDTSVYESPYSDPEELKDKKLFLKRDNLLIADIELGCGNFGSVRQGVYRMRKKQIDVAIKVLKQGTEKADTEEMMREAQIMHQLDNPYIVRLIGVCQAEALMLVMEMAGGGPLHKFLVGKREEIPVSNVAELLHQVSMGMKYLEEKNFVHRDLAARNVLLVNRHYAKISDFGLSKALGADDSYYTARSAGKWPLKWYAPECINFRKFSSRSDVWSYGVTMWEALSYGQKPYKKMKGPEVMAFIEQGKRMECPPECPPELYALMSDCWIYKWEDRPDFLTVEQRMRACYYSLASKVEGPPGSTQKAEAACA
Test: ZAP-70 inhibition assay (coupled enzyme assay)
Type: biochemical
Conditions: 100 μM ATP, 60 nM ZAP-70
Protocol: Compounds were screened for their ability to inhibit ZAP-70 using a standard coupled enzyme assay (Fox et al., Protein Sci., (1998) 7, 2249). Assays were carried out in a mixture of 100 mM HEPES 7.5, 10 mM MgCl2, 25 mM NaCl, 2 mM DTT and 3% DMSO. Final substrate concentrations in the assay were 100 μM ATP (Sigma Chemicals) and 20 μM peptide (poly-4EY, Sigma Chemicals). Assays were carried out at 30° C. and 60 nM ZAP-70. Final concentrations of the components of the coupled enzyme system were 2.5 mM phosphoenolpyruvate, 300 μM NADH, 30 μg/ml pyruvate kinase and 10 μg/ml lactate dehydrogenase.
An assay stock buffer solution was prepared containing all of the reagents listed above, with the exception of ZAP-70 and the test compound of interest. 55 μl of the stock solution was placed in a 96 well plate followed by addition of 2 μl of DMSO stock containing serial dilutions of the test compound (typically starting from a final concentration of 15 μM). […] Initial reaction rates were determined with a Molecular Devices SpectraMax Plus plate reader over a 15 minute time course. IC50 and Ki data were calculated from non-linear regression analysis using the Prism software package (GraphPad Prism version 3.0a for Macintosh, GraphPad Software, San Diego Calif., USA).

Structure (SMILES)	pKi
NS(=O)(=O)c1ccc(Nc2nccc(-c3ccc4c(c3)NC(=O)CO4)n2)cc1 [IVa-23]	> 6.00
CN1C(=O)COc2ccc(-c3ccnc(Nc4ccc(S(N)(=O)=O)cc4)n3)cc21 [IVa-24]	> 6.00
